Assay results reported in patent US11578054B2, “Compounds useful as immunomodulators” (Bristol-Myers Squibb Company, priority 2018, dated 2023).

target: PD-1/PD-L1 (Homo sapiens (Human), UniProt Q9NZQ7); experiment: PD-1/PD-L1 Homogenous Time-Resolved Fluorescence (HTRF) binding assay; details: PD-L1-His 10 nM, PD-1-Ig 20 nM
Excerpt: The ability of the compounds of formula (I) to bind to PD-L1 was investigated using a PD-1/PD-L1 Homogenous Time-Resolved Fluorescence (HTRF) binding assay.
Homogenous Time-Resolved Fluorescence (HTRF) binding assay.
The interaction of PD-1 and PD-L1 can be assessed using soluble, purified preparations of the extracellular domains of the two proteins. The PD-1 and PD-L1 protein extracellular domains were expressed as fusion proteins with detection tags, for PD-1, the tag was the Fc portion of Immunoglobulin (PD-1-Ig) and for PD-L1 it was the 6 histidine motif (PD-L1-His). All binding studies were performed in an HTRF assay buffer consisting of dPBS supplemented with 0.1% […] bovine serum albumin and 0.05% (v/v) Tween-20. For the h/PD-L1-His binding assay, inhibitors were pre-incubated with PD-L1-His (10 nM final) for 15m in 4 μl of assay buffer, followed by addition of PD-1-Ig (20 nM final) in 1 µl of assay buffer and further incubation for 15m. HTRF detection was achieved using europium crypate-labeled anti-Ig (1 nM final) and allophycocyanin (APC) labeled anti-His (20 nM final). Antibodies were diluted in HTRF detection buffer and 5 μl was dispensed on top of the binding reaction. The reaction mixture was allowed to equilibrate for 30 minutes and the resulting signal (665 nm/620 nm ratio) was obtained using an EnVision fluorometer. Additional binding assays were established between the human proteins PD-1-Ig/PD-L2-His (20 & 5 nM, respectively) and CD8O-His/PD-L1-Ig (100 & 10 nM, respectively).
Recombinant Proteins: Human PD-1 (25-167) with a C-terminal human Fc domain of immunoglobulin G (Ig) epitope tag [hPD-1 (25-167)-3S-IG] and human PD-L1 (18-239) with a C-terminal His epitope tag [hPD-L1(18-239)-TVMV-His] were expressed in HEK293T cells and purified sequentially by ProteinA affinity chromatography and size exclusion chromatography. Human PD-L2-His and CD8O-His was obtained through commercial sources.
The table below lists the IC50 values for representative examples of this disclosure measured in the PD-1/PD-L1 Homogenous Time-Resolved Fluorescence (HTRF) binding assay.

Chain of PD-1/PD-L1 (Q9NZQ7 other isoform, or with tags, fused parts or gaps): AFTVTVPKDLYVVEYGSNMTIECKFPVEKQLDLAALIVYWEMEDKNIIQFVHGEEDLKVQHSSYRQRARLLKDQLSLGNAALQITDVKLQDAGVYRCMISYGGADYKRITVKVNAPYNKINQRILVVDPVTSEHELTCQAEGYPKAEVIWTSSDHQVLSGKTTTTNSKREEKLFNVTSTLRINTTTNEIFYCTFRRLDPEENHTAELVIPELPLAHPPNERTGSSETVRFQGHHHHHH

Compound | IC50 [nM]
CN1CCCC(COc2cccc(-c3cccc4c3CCC4Oc3cc(OCc4cncc(C#N)c4)c(CN4CCCC[C@H]4C(=O)O)cc3Cl)c2Cl)C1 (stereo partly drawn) [Example 1001, (2S)-1-(5-Chloro-4-((4-(2-chloro-3-((1-methylpiperidin-3-yl)methoxy)phenyl)-2,3-dihydro-1H-inden-1-yl)oxy)-2-((5-cyanopyridin-3-yl)methoxy)benzyl)piperidine-2-carboxylic acid] | 1.4
CN1CCCC(COc2cccc(-c3cccc4c3CCC4Oc3cc(OCc4cncc(C#N)c4)c(CN[C@](C)(CO)C(=O)O)cc3Cl)c2Cl)C1 (stereo partly drawn) [Example 1002, (2R)-2-((5-Chloro-4-((4-(2-chloro-3-((1-methylpiperidin-3-yl)methoxy)phenyl)-2,3-dihydro-1H-inden-1-yl)oxy)-2-((5-cyanopyridin-3-yl)methoxy)benzyl)amino)-3-hydroxy-2-methylpropanoic acid] | 0.9
CN1CCCC(COc2cccc(-c3cccc4c3CCC4Oc3cc(OCc4cncc(C#N)c4)c(CO)cc3Cl)c2Cl)C1 (centres unmarked) [Example 1003, 5-((4-Chloro-5-((4-(2-chloro-3-((1-methylpiperidin-3-yl)methoxy)phenyl)-2,3-dihydro-1H-inden-1-yl)oxy)-2-(hydroxymethyl)phenoxy)-methyl)nicotinonitrile] | 9.1
CN1CCC[C@@H](COc2cccc(-c3cccc4c3CC[C@@H]4Oc3cc(OCc4cncc(C#N)c4)c(CN[C@](C)(CO)C(=O)O)cc3Cl)c2Cl)C1 [Example 1004] | 3.9
CN1CCC[C@@H](COc2cccc(-c3cccc4c3CC[C@@H]4Oc3cc(OCc4cncc(C#N)c4)c(CO)cc3Cl)c2Cl)C1 [Example 1005, 5-((4-chloro-5-(((S)-4-(2-chloro-3-(((R)-1-methylpiperidin-3-yl)methoxy)phenyl)-2,3-dihydro-1H-inden-1-yl)oxy)-2-(hydroxymethyl)phenoxy)methyl)nicotinonitrile] | 10.6
CN1CCC[C@@H](COc2cccc(-c3cccc4c3CC[C@H]4Oc3cc(OCc4cncc(C#N)c4)c(CN[C@](C)(CO)C(=O)O)cc3Cl)c2Cl)C1 [Example 1006, (R)-2-((5-chloro-4-(((R)-4-(2-chloro-3-(((R)-1-methylpiperidin-3-yl)methoxy)phenyl)-2,3-dihydro-1H-inden-1-yl)oxy)-2-((5-cyanopyridin-3-yl)methoxy)benzyl)amino)-3-hydroxy-2-methylpropanoic acid] | 3.5
CN1CCC[C@@H](COc2cccc(-c3cccc4c3CC[C@H]4Oc3cc(OCc4cncc(C#N)c4)c(CO)cc3Cl)c2Cl)C1 [Example 1007, 5-((4-chloro-5-(((R)-4-(2-chloro-3-(((R)-1-methylpiperidin-3-yl)methoxy)phenyl)-2,3-dihydro-1H-inden-1-yl)oxy)-2-(hydroxymethyl)phenoxy)methyl)nicotinonitrile] | 4.3
CN1CCC[C@H](COc2cccc(-c3cccc4c3CC[C@@H]4Oc3cc(OCc4cncc(C#N)c4)c(CN[C@](C)(CO)C(=O)O)cc3Cl)c2Cl)C1 [Example 1008, (R)-2-((5-chloro-4-(((S)-4-(2-chloro-3-(((S)-1-methylpiperidin-3-yl)methoxy)phenyl)-2,3-dihydro-1H-inden-1-yl)oxy)-2-((5-cyanopyridin-3-yl)methoxy)benzyl)amino)-3-hydroxy-2-methylpropanoic acid] | 3
CN1CCC[C@H](COc2cccc(-c3cccc4c3CC[C@@H]4Oc3cc(OCc4cncc(C#N)c4)c(CO)cc3Cl)c2Cl)C1 [Example 1009, 5-((4-chloro-5-(((S)-4-(2-chloro-3-(((S)-1-methylpiperidin-3-yl)methoxy)phenyl)-2,3-dihydro-1H-inden-1-yl)oxy)-2-(hydroxymethyl)phenoxy)methyl)nicotinonitrile] | 24.1
CN1CCC[C@H](COc2cccc(-c3cccc4c3CC[C@H]4Oc3cc(OCc4cncc(C#N)c4)c(CN[C@](C)(CO)C(=O)O)cc3Cl)c2Cl)C1 [Example 1010, (R)-2-((5-chloro-4-(((R)-4-(2-chloro-3-(((S)-1-methylpiperidin-3-yl)methoxy)phenyl)-2,3-dihydro-1H-inden-1-yl)oxy)-2-((5-cyanopyridin-3-yl)methoxy)benzyl)amino)-3-hydroxy-2-methylpropanoic acid] | 2
CN1CCC[C@H](COc2cccc(-c3cccc4c3CC[C@H]4Oc3cc(OCc4cncc(C#N)c4)c(CO)cc3Cl)c2Cl)C1 [Example 1011, 5-((4-chloro-5-(((R)-4-(2-chloro-3-(((S)-1-methylpiperidin-3-yl)methoxy)phenyl)-2,3-dihydro-1H-inden-1-yl)oxy)-2-(hydroxymethyl)phenoxy)methyl)nicotinonitrile] | 10.4
Cc1c(OCCCN2CC[C@@H](O)C2)cccc1-c1cccc2c1CCC2Oc1cc(OCc2cncc(C#N)c2)c(CN[C@](C)(CO)C(=O)O)cc1Cl (stereo partly drawn) [Example 1012, (2R)-2-((5-Chloro-2-((5-cyanopyridin-3-yl)methoxy)-4-((4-(3-(3-((R)-3-hydroxypyrrolidin-1-yl)propoxy)-2-methylphenyl)-2,3-dihydro-1H-inden-1-yl)oxy)benzyl)-amino)-3-hydroxy-2-methylpropanoic acid] | 1.8
Cc1c(OCCCN2CC[C@@H](O)C2)cccc1-c1cccc2c1CCC2Oc1cc(OCc2cncc(C#N)c2)c(CO)cc1Cl (stereo partly drawn) [Example 1013, 5-((4-Chloro-2-(hydroxymethyl)-5-((4-(3-(3-((R)-3-hydroxypyrrolidin-1-yl)propoxy)-2-methylphenyl)-2,3-dihydro-1H-inden-1-yl)oxy)phenoxy)methyl)nicotinonitrile] | 18.1

More lines, now with the values ahead:

IC50 [nM] | Compound
5.8 | Cc1c(OCCCN2CC[C@@H](O)C2)cccc1-c1cccc2c1CCC2Oc1cc(OCc2cncc(C#N)c2)c(CN2CCCC[C@H]2C(=O)O)cc1Cl (stereo partly drawn) [Example 1014, (2S)-1-(5-Chloro-2-((5-cyanopyridin-3-yl)methoxy)-4-((4-(3-(3-((R)-3-hydroxypyrrolidin-1-yl)propoxy)-2-methylphenyl)-2,3-dihydro-1H-inden-1-yl)oxy)benzyl)-piperidine-2-carboxylic acid]
1.9 | Cc1c(OCCCN2CC[C@@H](O)C2)cccc1-c1cccc2c1CCC2Oc1cc(OCc2cncc(C#N)c2)c(CN[C@@H](CCO)C(=O)O)cc1Cl (stereo partly drawn) [Example 1015, (5-chloro-2-((5-cyanopyridin-3-yl)methoxy)-4-((4-(3-(3-((R)-3-hydroxypyrrolidin-1-yl)propoxy)-2-methylphenyl)-2,3-dihydro-1H-inden-1-yl)oxy)benzyl)-L-homoserine]
3.4 | CC(=O)NC1CCN(CCCOc2cccc(-c3cccc4c3CCC4Oc3cc(OCc4cncc(C#N)c4)c(CN[C@](C)(CO)C(=O)O)cc3Cl)c2Cl)CC1 (stereo partly drawn) [Example 1016, (2R)-2-((4-((4-(3-(3-(4-Acetamidopiperidin-1-yl)propoxy)-2-chlorophenyl)-2,3-dihydro-1H-inden-1-yl)oxy)-5-chloro-2-((5-cyanopyridin-3-yl)methoxy)benzyl)amino)-3-hydroxy-2-methylpropanoic acid]
0.2 | CC(=O)NC1CCN(CCCOc2cccc(-c3cccc4c3CCC4Oc3cc(OCc4cncc(C#N)c4)c(CN4CCCC[C@H]4C(=O)O)cc3Cl)c2Cl)CC1 (stereo partly drawn) [Example 1017, (2S)-1-(4-((4-(3-(3-(4-Acetamidopiperidin-1-yl)propoxy)-2-chlorophenyl)-2,3-dihydro-1H-inden-1-yl)oxy)-5-chloro-2-((5-cyanopyridin-3-yl)methoxy)benzyl)piperidine-2-carboxylic acid]
2.9 | CC(=O)NC1CCN(CCCOc2cccc(-c3cccc4c3CCC4Oc3cc(OCc4cncc(C#N)c4)c(CN[C@@H](CCO)C(=O)O)cc3Cl)c2Cl)CC1 (stereo partly drawn) [Example 1018, (4-((4-(3-(3-(4-Acetamidopiperidin-1-yl)propoxy)-2-chlorophenyl)-2,3-dihydro-1H-inden-1-yl)oxy)-5-chloro-2-((5-cyanopyridin-3-yl)methoxy)benzyl)-L-homoserine]
2.5 | C[C@](CO)(NCc1cc(Cl)c(OC2CCc3c(-c4cccc(OCCCNC[C@H](O)CO)c4Cl)cccc32)cc1OCc1cncc(C#N)c1)C(=O)O (stereo partly drawn) [Example 1019, (2R)-2-((5-chloro-4-((4-(2-chloro-3-(3-(((S)-2,3-dihydroxypropyl)amino)propoxy)phenyl)-2,3-dihydro-1H-inden-1-yl)oxy)-2-((5-cyanopyridin-3-yl)methoxy)benzyl)amino)-3-hydroxy-2-methylpropanoic acid]
10.9 | N#Cc1cncc(COc2cc(OC3CCc4c(-c5cccc(OCCCNC[C@H](O)CO)c5Cl)cccc43)c(Cl)cc2CO)c1 (stereo partly drawn) [Example 1020, 5-((4-Chloro-5-((4-(2-chloro-3-(3-(((S)-2,3-dihydroxypropyl)amino)propoxy)phenyl)-2,3-dihydro-1H-inden-1-yl)oxy)-2-(hydroxymethyl)phenoxy)methyl)nicotinonitrile]
